# In ChEMBL document CHEMBL1201862, “PubChem BioAssay data set” (2004):
# Activity calls are given as the source filed them.
# Assays:
# [1] = system: Vero; experiment: cells; type: functional; conditions: Chlorocebus sabaeus
# [2] = C. albicans growth with fluconazole, confirmation, fluorescence, retest (AID 2467); type: functional, cell-based
# [3] = NIH-3T3 fibroblast cytotoxicity, dose response, cytotoxicity control, cell-based, fluorescence, Alamar Blue, secondary assay (AID 2327); type: functional;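 further: NIH-3T3 mouse fibroblasts cultured with fluconazole at 8 µg/mL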
# [4] = Luminescent dose response cell-based high throughput screening assay for inhibitors of the Janus kinase 2 mutant JAK2V617F. [Related pubchem assays: 1446 (Primary screen.), 1521 (Confirmation assay.), 1486 (Counter screen.)]; type: functional
# [5] = M. tuberculosis H37Rv growth inhibitors, H37Rv strain (AID 1626); type: functional
# [6] = biological target: T1, Hexokinase HKDC1 (Homo sapiens, UniProt Q2TB90); experiment: HKDC1 hexokinase inhibitors, dose response, biochemical, W721R variant (AID 504729); type: functional
# T1 sequence (Q2TB90 whole entry): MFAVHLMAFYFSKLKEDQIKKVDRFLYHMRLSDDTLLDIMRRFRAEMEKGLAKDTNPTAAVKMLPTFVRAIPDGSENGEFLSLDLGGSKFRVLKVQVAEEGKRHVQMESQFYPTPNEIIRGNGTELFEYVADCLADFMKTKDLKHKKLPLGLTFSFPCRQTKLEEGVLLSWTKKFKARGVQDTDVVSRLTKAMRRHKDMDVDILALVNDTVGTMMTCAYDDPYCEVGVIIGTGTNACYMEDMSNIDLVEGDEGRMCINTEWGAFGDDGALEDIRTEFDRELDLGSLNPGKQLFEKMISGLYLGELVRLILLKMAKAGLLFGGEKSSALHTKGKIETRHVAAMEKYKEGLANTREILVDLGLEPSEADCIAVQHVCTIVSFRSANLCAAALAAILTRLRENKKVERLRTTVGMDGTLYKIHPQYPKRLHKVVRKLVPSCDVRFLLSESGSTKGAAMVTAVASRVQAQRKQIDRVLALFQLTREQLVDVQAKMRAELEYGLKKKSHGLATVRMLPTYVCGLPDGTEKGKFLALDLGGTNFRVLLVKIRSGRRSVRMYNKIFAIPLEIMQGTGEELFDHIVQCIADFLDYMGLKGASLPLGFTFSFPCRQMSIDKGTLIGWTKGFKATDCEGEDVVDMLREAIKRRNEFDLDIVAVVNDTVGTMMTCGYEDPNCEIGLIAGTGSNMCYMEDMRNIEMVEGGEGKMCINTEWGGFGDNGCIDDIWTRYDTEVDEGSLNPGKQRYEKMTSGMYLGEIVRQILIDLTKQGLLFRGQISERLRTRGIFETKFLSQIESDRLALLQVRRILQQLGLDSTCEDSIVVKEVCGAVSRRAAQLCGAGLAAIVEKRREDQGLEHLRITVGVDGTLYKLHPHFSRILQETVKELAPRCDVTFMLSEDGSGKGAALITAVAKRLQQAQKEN
# [7] = biological target: DNA dC->dU-editing enzyme APOBEC-3A (Homo sapiens, UniProt P31941); experiment: APOBEC3A DNA deaminase inhibitors, dose response, biochemical (AID 504722); type: functional
# DNA dC->dU-editing enzyme APOBEC-3A, sequence (P31941 whole entry): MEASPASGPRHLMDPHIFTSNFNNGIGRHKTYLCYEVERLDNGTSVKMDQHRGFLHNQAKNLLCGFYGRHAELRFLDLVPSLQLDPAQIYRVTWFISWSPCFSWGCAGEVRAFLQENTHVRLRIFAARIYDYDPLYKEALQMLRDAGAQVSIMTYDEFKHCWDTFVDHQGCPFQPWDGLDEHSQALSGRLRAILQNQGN
# [8] = biological target: DNA dC->dU-editing enzyme APOBEC-3G (Homo sapiens, UniProt Q9HC16); experiment: Dose Response confirmation of small molecule APOBEC3G DNA Deaminase Inhibitors via a fluorescence-based single-stranded DNA deaminase assay. [Related pubchem assays (depositor defined):AID493012, AID493028]; type: functional
# DNA dC->dU-editing enzyme APOBEC-3G, sequence (Q9HC16 whole entry): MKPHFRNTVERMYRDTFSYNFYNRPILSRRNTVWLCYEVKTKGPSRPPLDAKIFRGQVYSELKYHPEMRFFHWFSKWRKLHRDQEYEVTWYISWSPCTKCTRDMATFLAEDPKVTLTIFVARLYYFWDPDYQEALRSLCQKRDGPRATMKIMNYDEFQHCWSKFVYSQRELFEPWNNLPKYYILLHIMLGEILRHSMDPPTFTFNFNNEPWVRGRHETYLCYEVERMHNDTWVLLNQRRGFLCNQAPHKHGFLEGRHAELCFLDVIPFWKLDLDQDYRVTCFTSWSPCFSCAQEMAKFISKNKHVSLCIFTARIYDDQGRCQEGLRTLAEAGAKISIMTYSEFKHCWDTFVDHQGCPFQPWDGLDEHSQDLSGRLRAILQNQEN
# [9] = cytotoxicity in KRAS-transformed pancreatic duct cells, primary screen, cell-based, fluorescence, HTS (AID 431); type: functional; conditions: Homo sapiens;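 further: cell line used: HPDE-C7K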
# [10] = cytotoxicity in HPDE-C7 cells, cell-based, fluorescence, HTS (AID 430); type: functional; conditions: Homo sapiens
# [11] = biological target: T2, Estrogen receptor (Homo sapiens, UniProt P03372);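 further: potency for inhibiting coactivator peptide recruitment to the receptor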
# T2 sequence (P03372 whole entry): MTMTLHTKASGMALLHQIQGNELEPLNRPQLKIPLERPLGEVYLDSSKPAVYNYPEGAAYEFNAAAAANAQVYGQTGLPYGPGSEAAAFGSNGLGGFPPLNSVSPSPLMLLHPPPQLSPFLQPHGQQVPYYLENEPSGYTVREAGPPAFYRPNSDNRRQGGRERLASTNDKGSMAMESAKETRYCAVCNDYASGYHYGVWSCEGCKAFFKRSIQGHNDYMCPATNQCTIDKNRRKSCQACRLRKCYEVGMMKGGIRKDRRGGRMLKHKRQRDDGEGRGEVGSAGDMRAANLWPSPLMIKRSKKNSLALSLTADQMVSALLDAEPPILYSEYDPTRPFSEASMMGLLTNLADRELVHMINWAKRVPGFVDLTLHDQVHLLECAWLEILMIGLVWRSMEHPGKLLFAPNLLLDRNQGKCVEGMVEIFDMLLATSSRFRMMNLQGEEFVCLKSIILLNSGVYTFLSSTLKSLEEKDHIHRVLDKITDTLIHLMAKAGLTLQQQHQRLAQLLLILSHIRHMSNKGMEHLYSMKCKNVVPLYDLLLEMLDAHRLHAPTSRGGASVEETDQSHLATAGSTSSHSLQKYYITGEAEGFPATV
# [12] = biological target: Beta-galactosidase (Escherichia coli, UniProt Q8VNN2); experiment: beta-galactosidase enzyme inhibitors and activators, dose response, artefact control for CCR6 antagonist project, biochemical, E. coli enzyme, set 3 (AID 504712); type: functional
# Beta-galactosidase, sequence (Q8VNN2 whole entry): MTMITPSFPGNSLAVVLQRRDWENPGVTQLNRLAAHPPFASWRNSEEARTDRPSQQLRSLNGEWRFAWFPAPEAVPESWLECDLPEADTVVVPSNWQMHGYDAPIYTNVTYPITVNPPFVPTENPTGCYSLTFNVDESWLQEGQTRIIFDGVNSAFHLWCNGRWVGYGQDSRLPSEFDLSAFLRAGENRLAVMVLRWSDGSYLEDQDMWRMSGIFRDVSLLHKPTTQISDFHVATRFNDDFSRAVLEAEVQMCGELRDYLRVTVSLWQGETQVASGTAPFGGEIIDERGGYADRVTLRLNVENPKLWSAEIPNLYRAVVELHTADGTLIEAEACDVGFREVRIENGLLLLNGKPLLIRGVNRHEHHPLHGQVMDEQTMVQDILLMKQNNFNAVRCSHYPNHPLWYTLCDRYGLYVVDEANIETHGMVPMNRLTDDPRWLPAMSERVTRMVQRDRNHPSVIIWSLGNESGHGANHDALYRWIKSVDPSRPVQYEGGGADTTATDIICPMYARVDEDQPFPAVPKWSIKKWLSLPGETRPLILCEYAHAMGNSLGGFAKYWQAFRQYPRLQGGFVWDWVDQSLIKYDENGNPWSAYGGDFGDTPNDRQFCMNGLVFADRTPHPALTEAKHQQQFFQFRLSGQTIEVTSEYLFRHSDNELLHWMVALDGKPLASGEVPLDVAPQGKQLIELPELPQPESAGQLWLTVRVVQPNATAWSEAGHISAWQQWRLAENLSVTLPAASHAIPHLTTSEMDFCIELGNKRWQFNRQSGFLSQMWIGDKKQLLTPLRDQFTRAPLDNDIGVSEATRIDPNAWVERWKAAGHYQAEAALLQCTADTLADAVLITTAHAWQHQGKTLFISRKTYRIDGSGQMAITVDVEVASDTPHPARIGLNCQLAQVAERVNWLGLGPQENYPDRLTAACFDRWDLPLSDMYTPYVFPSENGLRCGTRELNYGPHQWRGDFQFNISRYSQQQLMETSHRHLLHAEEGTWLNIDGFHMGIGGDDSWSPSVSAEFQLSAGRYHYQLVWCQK
# [13] = biological target: T3, Polyadenylate-binding protein 1 (Homo sapiens, UniProt P11940); experiment: PABP1 MLLE–PAM2 binding inhibitor potency, dose response, biochemical, fluorescence polarization, FITC-PAM2 peptide (AID 602259); type: functional; conditions: read-out: IC50_Mean
# T3 sequence (P11940 whole entry): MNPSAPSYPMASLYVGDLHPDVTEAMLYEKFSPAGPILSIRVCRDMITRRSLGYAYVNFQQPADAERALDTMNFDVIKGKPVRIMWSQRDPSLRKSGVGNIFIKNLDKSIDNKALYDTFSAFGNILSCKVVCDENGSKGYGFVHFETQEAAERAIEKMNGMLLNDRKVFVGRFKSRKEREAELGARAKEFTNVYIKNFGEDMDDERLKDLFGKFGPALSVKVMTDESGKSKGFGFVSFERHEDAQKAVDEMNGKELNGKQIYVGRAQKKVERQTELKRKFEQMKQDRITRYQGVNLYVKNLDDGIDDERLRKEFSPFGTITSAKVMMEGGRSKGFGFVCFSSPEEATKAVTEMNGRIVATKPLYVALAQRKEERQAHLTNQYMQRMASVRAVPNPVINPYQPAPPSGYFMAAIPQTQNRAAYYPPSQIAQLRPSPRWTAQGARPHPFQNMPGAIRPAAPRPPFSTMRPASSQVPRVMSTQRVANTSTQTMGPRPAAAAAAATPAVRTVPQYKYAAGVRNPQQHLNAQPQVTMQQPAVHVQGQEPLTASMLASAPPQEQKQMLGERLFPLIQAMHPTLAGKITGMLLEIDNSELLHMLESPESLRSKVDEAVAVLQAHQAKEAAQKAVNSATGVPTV
# [14] = biological target: Induced myeloid leukemia cell differentiation protein Mcl-1 (Homo sapiens, UniProt Q07820); type: functional
# Induced myeloid leukemia cell differentiation protein Mcl-1, sequence (Q07820 whole entry): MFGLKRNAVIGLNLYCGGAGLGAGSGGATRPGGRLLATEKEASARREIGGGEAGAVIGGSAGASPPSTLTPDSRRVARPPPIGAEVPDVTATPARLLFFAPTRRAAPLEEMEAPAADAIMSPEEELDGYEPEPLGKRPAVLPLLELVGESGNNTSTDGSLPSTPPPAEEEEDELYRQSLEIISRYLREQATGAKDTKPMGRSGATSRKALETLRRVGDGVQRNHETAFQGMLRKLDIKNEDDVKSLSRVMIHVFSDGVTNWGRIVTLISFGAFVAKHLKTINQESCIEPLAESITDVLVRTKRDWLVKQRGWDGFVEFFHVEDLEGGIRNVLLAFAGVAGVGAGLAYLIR
# [15] = biological target: Genome polyprotein (dengue virus type 2, UniProt P29990); experiment: Dengue-2 NS5 methyltransferase inhibitors, primary screen, biochemical, confirmation dose response (AID 588689); type: functional
# Genome polyprotein, sequence (P29990 2492-3391 limits assumed): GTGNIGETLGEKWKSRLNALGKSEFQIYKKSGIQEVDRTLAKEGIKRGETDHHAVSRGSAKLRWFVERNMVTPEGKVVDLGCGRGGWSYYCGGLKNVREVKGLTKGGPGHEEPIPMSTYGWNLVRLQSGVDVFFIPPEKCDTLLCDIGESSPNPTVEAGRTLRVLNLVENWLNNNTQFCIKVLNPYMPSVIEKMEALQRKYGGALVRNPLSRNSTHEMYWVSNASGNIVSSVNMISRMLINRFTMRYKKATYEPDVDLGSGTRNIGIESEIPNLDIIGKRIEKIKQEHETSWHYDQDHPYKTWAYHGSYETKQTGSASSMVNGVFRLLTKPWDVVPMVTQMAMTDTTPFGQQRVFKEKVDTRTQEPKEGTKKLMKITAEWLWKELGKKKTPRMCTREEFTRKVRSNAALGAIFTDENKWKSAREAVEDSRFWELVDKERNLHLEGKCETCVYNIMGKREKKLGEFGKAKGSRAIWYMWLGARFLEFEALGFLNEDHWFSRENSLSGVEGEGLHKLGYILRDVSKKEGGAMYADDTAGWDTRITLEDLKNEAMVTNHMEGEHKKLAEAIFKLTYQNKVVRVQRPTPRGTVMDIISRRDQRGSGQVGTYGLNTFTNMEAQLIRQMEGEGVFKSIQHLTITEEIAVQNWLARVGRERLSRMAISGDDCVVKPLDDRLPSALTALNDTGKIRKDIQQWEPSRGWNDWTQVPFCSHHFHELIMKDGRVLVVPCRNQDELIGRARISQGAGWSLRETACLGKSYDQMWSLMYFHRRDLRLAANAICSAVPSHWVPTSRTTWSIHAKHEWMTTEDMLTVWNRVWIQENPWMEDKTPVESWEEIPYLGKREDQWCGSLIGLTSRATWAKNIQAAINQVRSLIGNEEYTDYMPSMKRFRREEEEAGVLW
# [16] = biological target: T3, Polyadenylate-binding protein 1; experiment: PABP1 MLLE–PAM2 interaction inhibitors, dose response, miRNA deadenylation inhibitor project, biochemical, fluorescence polarization, Cy5-PAM2 peptide, secondary (AID 602260); type: functional; conditions: read-out: IC50_Mean
# [17] = system: Vero; experiment: Vero cell cytotoxicity, cytotoxicity control for flavivirus capping enzyme inhibitors (AID 588742); type: functional; conditions: Chlorocebus sabaeus
# [18] = biological target: T4, Replicative DNA helicase DnaB (Mycobacterium tuberculosis, UniProt P9WMR3); experiment: DnaB intein splicing inhibitors, dose response, biochemical, cell-free fluorescence (AID 449749); type: functional
# T4 sequence (P9WMR3 whole entry): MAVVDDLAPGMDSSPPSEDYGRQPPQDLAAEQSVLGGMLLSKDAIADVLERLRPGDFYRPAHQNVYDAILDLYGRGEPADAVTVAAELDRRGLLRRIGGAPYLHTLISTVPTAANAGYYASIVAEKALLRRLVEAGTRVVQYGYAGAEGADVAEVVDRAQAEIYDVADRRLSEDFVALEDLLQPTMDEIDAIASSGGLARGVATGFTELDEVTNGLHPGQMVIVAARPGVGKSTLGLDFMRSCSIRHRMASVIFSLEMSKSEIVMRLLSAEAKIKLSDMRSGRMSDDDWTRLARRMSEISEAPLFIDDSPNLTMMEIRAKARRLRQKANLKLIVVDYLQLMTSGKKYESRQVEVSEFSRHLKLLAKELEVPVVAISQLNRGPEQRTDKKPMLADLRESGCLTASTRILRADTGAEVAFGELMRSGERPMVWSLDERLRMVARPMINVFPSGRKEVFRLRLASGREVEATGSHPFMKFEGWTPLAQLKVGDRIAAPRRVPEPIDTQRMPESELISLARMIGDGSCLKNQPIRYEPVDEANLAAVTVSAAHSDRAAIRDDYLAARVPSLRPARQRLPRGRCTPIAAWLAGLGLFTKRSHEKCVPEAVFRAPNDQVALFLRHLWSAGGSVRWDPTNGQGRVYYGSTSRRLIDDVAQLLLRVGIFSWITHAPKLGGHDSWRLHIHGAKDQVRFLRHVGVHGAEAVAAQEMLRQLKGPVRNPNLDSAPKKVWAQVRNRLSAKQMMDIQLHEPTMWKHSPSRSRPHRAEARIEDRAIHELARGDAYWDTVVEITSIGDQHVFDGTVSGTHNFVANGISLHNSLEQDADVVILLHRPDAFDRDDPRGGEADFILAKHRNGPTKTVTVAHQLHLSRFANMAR
# [19] = biological target: T5, Protein RecA (Mycobacterium tuberculosis, UniProt P9WHJ3); experiment: Fluorescence Cell-Free Homogeneous Dose Retest to Identify Inhibitors of RecA-Intein Splicing Activity. [Related pubchem assays (depositor defined):AID2097, AID2223, AID489010, AID492950]; type: functional
# T5 sequence (P9WHJ3 whole entry): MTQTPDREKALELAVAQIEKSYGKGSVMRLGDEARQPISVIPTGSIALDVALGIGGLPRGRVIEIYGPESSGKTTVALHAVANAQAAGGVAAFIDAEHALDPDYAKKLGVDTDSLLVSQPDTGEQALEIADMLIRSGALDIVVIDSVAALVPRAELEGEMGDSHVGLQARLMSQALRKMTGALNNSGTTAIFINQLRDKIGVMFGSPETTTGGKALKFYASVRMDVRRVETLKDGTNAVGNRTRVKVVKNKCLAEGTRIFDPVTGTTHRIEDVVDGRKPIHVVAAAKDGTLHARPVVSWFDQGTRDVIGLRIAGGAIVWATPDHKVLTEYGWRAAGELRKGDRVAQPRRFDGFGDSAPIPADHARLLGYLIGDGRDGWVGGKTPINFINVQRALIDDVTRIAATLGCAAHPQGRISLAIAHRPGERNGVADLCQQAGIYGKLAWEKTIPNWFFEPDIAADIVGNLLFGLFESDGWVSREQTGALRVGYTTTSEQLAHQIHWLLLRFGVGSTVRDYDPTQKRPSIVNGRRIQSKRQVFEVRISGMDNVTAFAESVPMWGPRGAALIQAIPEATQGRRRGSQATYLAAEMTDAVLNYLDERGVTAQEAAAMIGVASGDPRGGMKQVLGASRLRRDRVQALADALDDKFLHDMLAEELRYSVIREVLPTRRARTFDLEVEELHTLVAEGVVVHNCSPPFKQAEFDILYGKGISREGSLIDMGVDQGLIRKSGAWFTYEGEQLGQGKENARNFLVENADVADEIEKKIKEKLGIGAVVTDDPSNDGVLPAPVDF
# [20] = biological target: T6, Heat shock factor protein 1 (Mus musculus, UniProt P38532); experiment: HSF1 potentiators in luciferase reporter cells, confirmation, cell-based, NIH3T3, luminescence, dose retest (AID 435004); type: functional;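 further: stress induced by proteasome inhibitor MG132 added 30 min after compound; luciferase reporter driven by HSF1 response element in NIH3T3 cells; actives raise luminescence as potentiators of the MG132 stress response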
# T6 sequence (P38532 whole entry): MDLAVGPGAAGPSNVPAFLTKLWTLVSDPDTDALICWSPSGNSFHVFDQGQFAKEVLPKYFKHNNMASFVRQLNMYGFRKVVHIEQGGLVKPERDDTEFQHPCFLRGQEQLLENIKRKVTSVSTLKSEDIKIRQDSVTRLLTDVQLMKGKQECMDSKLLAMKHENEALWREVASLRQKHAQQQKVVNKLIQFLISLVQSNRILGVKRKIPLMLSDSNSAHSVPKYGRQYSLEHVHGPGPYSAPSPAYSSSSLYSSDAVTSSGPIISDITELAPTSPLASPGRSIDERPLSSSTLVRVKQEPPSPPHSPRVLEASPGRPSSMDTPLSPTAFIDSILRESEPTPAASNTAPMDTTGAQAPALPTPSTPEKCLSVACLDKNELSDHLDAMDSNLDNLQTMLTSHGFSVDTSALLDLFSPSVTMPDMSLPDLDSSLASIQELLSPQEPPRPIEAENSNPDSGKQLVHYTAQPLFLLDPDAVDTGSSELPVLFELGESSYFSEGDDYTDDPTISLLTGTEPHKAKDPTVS
# [21] = biological target: Prothrombin (Homo sapiens, UniProt P00734); experiment: Thrombin 1536 HTS Dose Response Confirmation. [Related pubchem assays: 1046 (Thrombin 1536 HTS; hits were confirmed in this assay)]; type: functional
compound,measurement,setting,value
COc1ccccc1C(C[N+](=O)[O-])c1c(N)n(C)c(=O)n(C)c1=O (stereo unspecified),CC50,[1],9.01 µM (active)
same,EC50,[2],6.01 µM (active)
same,EC50,[3],9.19 µM (active)
same,IC50,[4],1.61 µM (active)
Cc1ccccc1N1C(=O)NC(=O)/C(=C/Nc2ccc3c(c2)OCO3)C1=O,IC50,[5],> 100 µM (active)
Oc1ccc(O)c(Cc2nc3ccccc3[nH]2)c1,IC50,[6],3.45 µM (active)
CCc1ccc(-n2c(=O)c3ccccc3n3c(S)nnc23)cc1.CN(C)C=O,IC50,[7],> 100 µM (inactive)
same,IC50,[8],4.9 µM (active)
Cc1ccc(S(=O)(=O)c2cc3c(=O)n4ccccc4nc3n(Cc3ccco3)c2=N)cc1C,EC50,[9],17.9 µM (active)
same,EC50,[10],18.8 µM (active)
CC12CNCC(C)(CNC1)C2O (stereo unspecified),EC50,[9],> 20 µM (not active)
same,EC50,[10],> 20 µM (not active)
Cc1ccc(S(=O)(=O)N2CCN(C(=O)CSc3ncc(C(F)(F)F)cc3Cl)CC2)cc1,IC50,[11],> 50 µM (not active)
N#Cc1cc2c([nH]c1=S)CCCC2,IC50,[7],> 100 µM (inactive)
same,IC50,[8],5.16 µM (active)
CCOC(=O)/C=C(\C)Sc1cc(O)c2ccccc2c1O,IC50,[12],> 66.6 µM (inactive)
same,IC50,[13],> 66 µM (inactive)
same,IC50,[14],10.5 µM (active)
same,IC50,[15],5.24 µM (active)
same,IC50,[16],> 66 µM (inactive)
same,CC50,[17],22 µM (active)
same,IC50,[6],11.8 µM (active)
Cc1ccc(C(=O)/C=C\Nc2ccc(C)c(C)c2)cc1,IC50,[5],> 100 µM (active)
COC1(OC)C(/C=C/c2ccc(Cl)cc2)C(C#N)(C#N)C1(OC)OC (stereo unspecified),IC50,[4],1.76 µM (active)
same,AC50,[18],33.8 µM (active)
same,EC50,[19],2.45 µM (active)
same,EC50,[20],33.6 µM (active)
O=C(Oc1oc(-c2ccco2)nc1/C=N/c1ccccc1)c1ccco1,EC50,[9],> 20 µM (not active)
same,EC50,[10],> 20 µM (not active)
same,IC50,[21],1.32 µM (active)
CCc1sc(N)nc1-c1ccccc1,IC50,[5],> 100 µM (active)
